Results as given in patent US4510139A, “Substituted aminobenzamides and their use as agents which inhibit lipoxygenase activity” (Sterling Drug Inc., priority 1984, dated 1985).
Read-outs that look alike come from different tables or passages of the source.

Columns and labels:
cyclooxygenase = molecular target: T1, cyclooxygenase (Rattus norvegicus, UniProt Q63921); experiment: Inhibition of cyclooxygenase derived from rat basophilic leukemia (RBL-1) cells, product C1 (PGD2); assay type: biochemical
T1 construct: microsomal fraction containing lipoxygenase and cyclooxygenase; endogenous in cells; host or cells: RBL-1 (rat basophilic leukemia) cells, homogenate / microsomal fraction
T1 sequence (Q63921 27-602): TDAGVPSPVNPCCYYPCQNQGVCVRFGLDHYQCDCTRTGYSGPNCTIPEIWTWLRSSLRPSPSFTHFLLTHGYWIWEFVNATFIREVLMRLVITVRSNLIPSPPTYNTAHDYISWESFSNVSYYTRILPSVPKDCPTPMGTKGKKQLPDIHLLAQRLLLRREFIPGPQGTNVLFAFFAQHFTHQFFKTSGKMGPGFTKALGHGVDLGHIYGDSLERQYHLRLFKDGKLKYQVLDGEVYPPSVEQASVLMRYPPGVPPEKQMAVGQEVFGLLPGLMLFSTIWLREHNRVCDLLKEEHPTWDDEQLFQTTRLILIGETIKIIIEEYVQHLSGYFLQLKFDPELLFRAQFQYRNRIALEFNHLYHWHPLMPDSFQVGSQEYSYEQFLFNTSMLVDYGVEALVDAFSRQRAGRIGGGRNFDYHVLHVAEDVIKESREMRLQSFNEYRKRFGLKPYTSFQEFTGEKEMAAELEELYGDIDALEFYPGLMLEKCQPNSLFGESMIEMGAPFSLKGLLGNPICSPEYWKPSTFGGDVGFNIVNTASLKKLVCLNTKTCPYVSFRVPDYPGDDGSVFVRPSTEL
Procedure: (§1) The primary screening test used is a determination of the inhibition of lipoxygenase and cyclooxygenase derived from rat basophilic leukemia (RBL-1) cells. The test was carried out according to the following procedure:
(§2) Single cell suspensions of RBL-1 cells are homogenized to obtain the microsomal fraction containing lipoxygenase and cyclooxygenase. Test compounds are added to the enzyme-containing homogenate for a 5 min preincubation period at 37° C. prior to the addition of ^14 C-arachidonic acid substrate. Following incubation at 37° C. for 15 min, the reaction is stopped by the addition of 2M formic acid and the enzyme-substrate products are extracted into chloroform. An aliquot of the extract is evaporated to dryness, reconstituted in ether to 1/10 original volume, spotted in thin layer chromatography plates and chromatographed. The peak areas of radioactivity representing the products are located by scanning the plates. The quantity of products formed is estimated by measuring the height of the radioactivity peaks observed on the chromatographic scans. Alternatively, the areas of radioactivity are scraped from the plate and the ^14 C quantitated by scintillation counting.

[1] = system: SRS-A component of immunologically induced broncho-constriction; experiment: Effect on the SRS-A component of immunologically induced broncho-constriction in guinea pigs; assay type: in vivo; settings: guinea pig, intravenous, highest soluble dose (0.1 mg/kg)
Procedure: The test was carried out according to the following procedure:
Two weeks after immunization with egg albumin, guinea pigs are prepared for bronchoconstriction determination. One hour prior to antigen challenge, each animal is dosed orally with indomethacin and chlorpheniramine. Animals are anesthetized with sodium pentobarbital, the trachea cannulated and the animal artifically respired. Arachidonic acid is administered intravenously prior to antigen challenge. The resulting bronchoconstriction is recorded by the standard lung overflow procedure and the peak increase in intratracheal pressure (mm Hg) over a 10 minute observation period is recorded. Compounds are evaluated for their ability to prevent the increased intratracheal pressure in an experimental group of animals as compared to the medicated (indomethacin+chlorpheniramine+arachidonic acid) control group. The results are expressed in terms of percent inhibition or as ED50 values (effective dose in 50% of the animals).

lipoxygenase = molecular target: T2, lipoxygenase (Rattus norvegicus, UniProt P12527); experiment: Inhibition of lipoxygenase derived from rat basophilic leukemia (RBL-1) cells, products L1 (5,12-di-HETE) and L2 (5-HETE); assay type: biochemical
T2 construct: microsomal fraction containing lipoxygenase and cyclooxygenase; endogenous in cells; host or cells: RBL-1 (rat basophilic leukemia) cells, homogenate / microsomal fraction
T2 sequence (P12527 1-673): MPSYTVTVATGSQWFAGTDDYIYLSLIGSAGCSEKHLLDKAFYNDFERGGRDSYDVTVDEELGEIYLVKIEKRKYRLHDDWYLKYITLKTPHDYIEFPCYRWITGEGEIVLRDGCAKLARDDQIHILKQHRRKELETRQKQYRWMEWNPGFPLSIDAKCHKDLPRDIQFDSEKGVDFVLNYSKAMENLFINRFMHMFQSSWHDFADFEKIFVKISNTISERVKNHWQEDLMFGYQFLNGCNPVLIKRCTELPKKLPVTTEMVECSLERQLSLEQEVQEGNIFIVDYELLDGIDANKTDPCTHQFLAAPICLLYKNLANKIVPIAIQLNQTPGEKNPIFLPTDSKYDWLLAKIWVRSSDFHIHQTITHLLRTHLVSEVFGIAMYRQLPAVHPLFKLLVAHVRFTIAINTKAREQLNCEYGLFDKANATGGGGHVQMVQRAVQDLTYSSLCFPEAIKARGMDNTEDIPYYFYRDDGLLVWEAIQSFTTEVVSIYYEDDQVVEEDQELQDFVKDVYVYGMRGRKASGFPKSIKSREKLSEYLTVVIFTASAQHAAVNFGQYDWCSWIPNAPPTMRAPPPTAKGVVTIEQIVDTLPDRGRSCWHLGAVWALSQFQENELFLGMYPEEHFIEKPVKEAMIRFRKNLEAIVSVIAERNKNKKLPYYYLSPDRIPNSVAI
Procedure: as §1, §2

## O=C(c1ccccc1Nc1ccc(O)cc1)N1CCCCC1 [Example 1(d), 1-[2-(4-Hydroxyphenylamino)benzoyl]piperidine]
cyclooxygenase
  IC50: > 100 µM
cyclooxygenase; dose of 1 μM, read-out: % Inhibition of cyclooxygenase (C1) formation
  inhibition at 1 µM: 0%
[1]
  percent inhibition of increased intratracheal pressure (bronchoconstriction): 48%
lipoxygenase; IC50 L1, L1 = 5,12-di-HETE
  IC50: 3.5 µM
lipoxygenase; IC50 L2, L2 = 5-HETE
  IC50: 0.6 µM
lipoxygenase; read-out: % Inhibition of lipoxygenase (L1) formation
  inhibition at 1 µM: 19%
lipoxygenase; read-out: % Inhibition of lipoxygenase (L2) formation
  inhibition at 1 µM: 64%
